Patent US20240174618A1, “SUBSTITUTED (2-HETEROARYLOXYPHENYL)SULFONATES, SALTS THEREOF AND THEIR USE AS HERBICIDAL AGENTS” (Bayer Aktiengesellschaft, priority 2021, published 2024)

Legend:
Format in all cases: in vivo
[1] = tested on: Alopecurus myosuroides (ALOMY); assay: A. Herbicidal pre-emergence efficacy, ALOMY; conditions: scored visually after about 3 weeks vs untreated controls
Method in brief: (§1)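 Applied before emergence onto covering soil at rates of 1280 g/ha or less, using 600 L/ha spray water with 0.5% additive. Scoring: visual % efficacy after ~3 weeks, greenhouse.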

[2] = tested on: Amaranthus retroflexus (AMARE); assay: A. Herbicidal pre-emergence efficacy, AMARE
Method in brief: as §1

Lolium rigidum (LOLRI) [3] = assay: A. Herbicidal pre-emergence efficacy, LOLRI
Method in brief: as §1

Lolium rigidum (LOLRI) [4] = assay: C. Herbicidal pre-emergence efficacy, LOLRI; conditions: 320 g/ha, scored after about 3 weeks
Method in brief: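 Pre-emergence test: formulated compounds sprayed as aqueous suspension or emulsion with 0.5% additive at 600 l/ha onto soil covering sown seeds, at rates corresponding to 320 g/ha or less. After about 3 weeks in greenhouse, efficacy scored visually as percent versus untreated controls (100% = plants dead).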

[5] = tested on: Matricaria inodora (MATIN); assay: A. Herbicidal pre-emergence efficacy, MATIN
Method in brief: as §1

Kochia scoparia (KCHSC) [6] = assay: B. Herbicidal post-emergence efficacy, KCHSC; conditions: for Post-emergence efficacy against KCHSC in %: rated visually after about 3 weeks; for Post-emergence efficacy against KCHSC: 1280 g/ha
Method in brief: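 Weeds grown in sandy loam in greenhouse and sprayed at the one-leaf stage, 2–3 weeks after sowing, with WP or EC formulations plus 0.5% additive at 600 L/ha water. Injury rated visually versus untreated controls after about 3 weeks (100% = dead, 0% = like control); rates up to 1280 g/ha.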

Kochia scoparia (KCHSC) [7] = assay: E. Herbicidal post-emergence efficacy, KCHSC
Method in brief: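 Compounds applied at 320 g/ha or less as a foliar spray (600 l/ha, 0.5% additive) to one-leaf-stage greenhouse plants grown in sandy loam. Damage is visually scored in percent relative to untreated plants after about 3 weeks.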

[8] = tested on: Digitaria sanguinalis (DIGSA); assay: A. Herbicidal pre-emergence efficacy, DIGSA; conditions: scored visually after about 3 weeks vs untreated controls
Method in brief: as §1

[9] = pre-emergence, dosage 1280 g/ha
[10] = 320 g/ha, scored visually after about 3 weeks vs untreated controls

Structure (SMILES) | Pre-emergence efficacy against ALOMY ([1]; 320 g/ha) [%] | Pre-emergence efficacy against ALOMY ([1]; 1280 g/ha) [%] | Pre-emergence efficacy against AMARE in % ([2]; 80 g/ha) [%] | Pre-emergence efficacy against AMARE in % ([2]; 320 g/ha) [%] | Pre-emergence efficacy against AMARE in % ([2]; 1280 g/ha) [%] | Pre-emergence efficacy against LOLRI (Lolium rigidum (LOLRI) [3]; dosage 320 g/ha) [%] | Pre-emergence efficacy against LOLRI (Lolium rigidum (LOLRI) [3]; dosage 1280 g/ha) [%] | Pre-emergence efficacy against LOLRI (Lolium rigidum (LOLRI) [4]) [%] | Pre-emergence efficacy against MATIN [5, 9] [%] | Post-emergence efficacy against KCHSC in % (Kochia scoparia (KCHSC) [6]; 80 g/ha) [%] | Post-emergence efficacy against KCHSC in % (Kochia scoparia (KCHSC) [6]; 320 g/ha) [%] | Post-emergence efficacy against KCHSC (Kochia scoparia (KCHSC) [6]) [%] | Pre-emergence efficacy against MATIN [5, 10] [%] | Post-emergence efficacy against KCHSC in % (Kochia scoparia (KCHSC) [7]; application rate 80 g/ha) [%] | Post-emergence efficacy against KCHSC in % (Kochia scoparia (KCHSC) [7]; application rate 320 g/ha) [%] | Pre-emergence efficacy against DIGSA ([8]; 320 g/ha) [%] | Pre-emergence efficacy against DIGSA ([8]; 1280 g/ha) [%] | Pre-emergence efficacy against DIGSA ([8]; 80 g/ha) [%]
O=S(=O)(CCCCl)Oc1ccccc1Oc1ncc(Cl)cn1 [Example I-2] | 100 | 100 | 100 | 100 | 100 | 90 | 100 | 100 | 100 | 100 | 100 | 100 | – | – | – | – | – | –
CCCS(=O)(=O)Oc1ccccc1Oc1ncc(Cl)cn1 [Example I-3] | 90 | 100 | 100 | 100 | 100 | 100 | 100 | 90 | 100 | 90 | 90 | 90 | 100 | – | – | – | – | –
O=S(=O)(CCCCl)Oc1ccccc1Oc1ncc(F)cn1 [Example I-5] | – | 90 | 100 | 100 | 100 | – | – | 80 | 100 | 100 | 100 | 100 | 90 | – | – | – | – | –
CC(C)CS(=O)(=O)Oc1ccccc1Oc1ncc(Cl)cn1 [Example I-7, [2-(5-Chloropyrimidin-2-yl)oxyphenyl] 2-methylpropane-1-sulfonate] | – | – | 100 | 100 | 100 | – | 90 | 90 | 100 | – | – | 90 | 100 | – | – | – | – | –
O=S(=O)(CCCCCl)Oc1ccccc1Oc1ncc(Cl)cn1 [Example I-15] | – | – | 100 | 100 | 100 | – | 90 | 80 | – | 100 | 100 | 100 | – | – | – | – | – | –
O=S(=O)(CCC(F)(F)F)Oc1c(Cl)cccc1Oc1ncc(Br)cn1 [Example I-32] | – | 90 | 90 | 90 | 100 | – | 90 | – | 90 | 100 | 100 | 100 | – | 90 | 100 | 90 | 90 | –
O=S(=O)(CCC(F)(F)F)Oc1c(Br)cccc1Oc1ncc(F)cn1 [Example I-43] | – | 90 | 100 | 100 | 100 | 100 | 100 | – | 90 | 90 | 90 | 100 | – | 90 | 100 | 100 | 100 | –
C=CCCS(=O)(=O)Oc1c(F)cccc1Oc1ncc(Cl)cn1 [Example I-50] | – | – | 90 | 90 | 100 | 90 | 90 | 100 | 90 | – | – | 90 | – | 80 | 100 | 90 | 100 | 90
COCCS(=O)(=O)Oc1c(F)cccc1Oc1ncc(Cl)cn1 [Example I-52] | – | – | 90 | 100 | 100 | – | 100 | 90 | 90 | – | – | – | – | 90 | 100 | 90 | 100 | –
O=S(=O)(CCC1CC1)Oc1c(F)cccc1Oc1ncc(Cl)cn1 [Example I-55] | – | – | 100 | 100 | 100 | – | 100 | 90 | – | – | 90 | 90 | – | 80 | 90 | 100 | 100 | 100
O=S(=O)(CCCC(F)(F)C(F)(F)F)Oc1c(F)cccc1Oc1ncc(Cl)cn1 [Example I-68] | – | 90 | – | 100 | 100 | – | 100 | – | 100 | 100 | 100 | 100 | 100 | 80 | 90 | 90 | 100 | –
O=S(=O)(CCC(F)=C(F)F)Oc1c(F)cccc1Oc1ncc(Cl)cn1 [Example I-70] | – | – | – | – | – | – | – | 100 | – | – | – | – | – | 90 | 100 | – | – | –
O=S(=O)(CCC(F)=C(F)F)Oc1c(Cl)cccc1Oc1ncc(Cl)cn1 [Example I-73] | – | – | 90 | 100 | 100 | – | 90 | 80 | – | 90 | 100 | 100 | – | 90 | 90 | 90 | 100 | –
N#Cc1cccc(Oc2ncc(Cl)cn2)c1OS(=O)(=O)CCCC(F)(F)F [Example I-81] | – | – | – | – | – | – | – | 90 | – | – | – | – | – | 100 | 100 | – | – | –
